Source: US9725442B2, “Heterocyclic derivative having PGD2 receptor antagonist activity” (Shionogi & Co., Ltd., priority 2011, dated 2017)
Like-named read-outs stand apart in the source and are kept apart here.

Key:
CYP3A4 = CYP3A4 (Homo sapiens (Human), UniProt P08684); assay: CYP inhibition test, terfenedine hydroxylation; assay type: in vitro ADME; settings: pooled human hepatic microsome, 1 μmol/L terfenedine
From the text: (§1) Using commercially available pooled human hepatic microsome, and employing, as markers, 7-ethoxyresorufin O-deethylation (CYP1A2), tolbutamide methyl-hydroxylation (CYP2C9), mephenyloin 4′-hydroxylation (CYP2C19), dextromethorphan O-demethylation (CYP2D6), and terfenedine hydroxylation as typical substrate metabolism reactions of human main five CYP enzyme forms (CYP1A2, 2C9, 2C19, 2D6, 3A4), an inhibitory degree of each metabolite production amount by a compound of the present compound was assessed.
(§2) The reaction conditions were as follows: substrate, 0.5 μmol/L ethoxyresorufin (CYP1A2), 100 μmol/L tolbutamide (CYP2C9), 50 μmol/L S-mephenyloin (CYP2C19), 5 μmol/L dextromethorphan (CYP2D6), 1 μmol/L terfenedine (CYP3A4); reaction time, 15 minutes; reaction temperature, 37° C.; enzyme, pooled human hepatic microsome 0.2 mg protein/mL; concentration of a compound of the present invention, 1, 5, 10, 20 μmol/L (four points).
(§3) Each five kinds of substrates, human hepatic microsome, or a compound of the present invention in 50 mM Hepes buffer as a reaction mixture was added to a 96-well plate at the composition as described above, NADPH, as a cofactor was added to initiate metabolism reactions as markers and. After the incubation at 37° C. for 15 minutes, a methanol/acetonitrile=1/1 (v/v) solution was added to stop the reaction. After the centrifugation at 3000 rpm for 15 minutes, resorufin (CYP1A2 metabolite) in the supernatant was quantified by a fluorescent multilabel counter and tolbutamide hydroxide (CYP2C9 metabolite), mephenyloin 4′ hydroxide (CYP2C19 metabolite), dextrorphan (CYP2D6 metabolite), and terfenadine alcohol (CYP3A4 metabolite) were quantified by LC/MS/MS.

CYP2C9 = CYP2C9 (Homo sapiens (Human), UniProt P11712); assay: CYP inhibition test, tolbutamide methyl-hydroxylation; assay type: in vitro ADME; settings: pooled human hepatic microsome, 100 μmol/L tolbutamide
Sequence of CYP2C9 (P11712 whole entry): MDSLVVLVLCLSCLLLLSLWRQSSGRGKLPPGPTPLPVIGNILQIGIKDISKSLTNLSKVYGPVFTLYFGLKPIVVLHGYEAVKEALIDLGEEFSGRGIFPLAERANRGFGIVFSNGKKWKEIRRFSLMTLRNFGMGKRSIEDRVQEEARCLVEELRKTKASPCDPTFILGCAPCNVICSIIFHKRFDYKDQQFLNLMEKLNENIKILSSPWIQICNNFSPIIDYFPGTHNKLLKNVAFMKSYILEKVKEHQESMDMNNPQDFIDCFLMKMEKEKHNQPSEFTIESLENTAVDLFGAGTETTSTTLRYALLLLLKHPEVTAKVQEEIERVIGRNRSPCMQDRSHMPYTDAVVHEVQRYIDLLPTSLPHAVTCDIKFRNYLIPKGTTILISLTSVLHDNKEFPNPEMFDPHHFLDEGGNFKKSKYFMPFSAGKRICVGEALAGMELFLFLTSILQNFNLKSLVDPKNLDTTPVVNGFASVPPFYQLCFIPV
From the text: as §1, §2, §3

CRTH2 [1] = molecular target: T1, CRTH2 (Homo sapiens (Human), UniProt Q9Y5Y4); assay: CRTH2 receptor binding inhibitory activity ([3H]-PGD2 displacement, membranes of CRTH2-expressing K562 cell); settings: [3H]-PGD2 displacement, membrane of CRTH2-expressing K562 cell, read-out: Ki
T1 sequence (Q9Y5Y4 whole entry): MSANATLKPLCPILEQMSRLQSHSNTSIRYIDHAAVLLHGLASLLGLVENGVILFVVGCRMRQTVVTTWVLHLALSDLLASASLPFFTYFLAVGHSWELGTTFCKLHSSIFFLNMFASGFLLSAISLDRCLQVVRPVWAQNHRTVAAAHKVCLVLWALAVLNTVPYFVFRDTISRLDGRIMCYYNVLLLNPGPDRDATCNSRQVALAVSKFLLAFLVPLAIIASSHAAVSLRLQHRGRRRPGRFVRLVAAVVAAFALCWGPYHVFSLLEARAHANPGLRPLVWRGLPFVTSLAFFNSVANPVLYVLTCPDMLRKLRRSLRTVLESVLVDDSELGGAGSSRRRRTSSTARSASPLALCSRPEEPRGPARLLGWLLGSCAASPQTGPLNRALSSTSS
In short: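 CRTH2-expressing K562 membranes (20 μg/well) in 50 mM Tris/HCl pH 7.4 with 10 mM MgCl2 were incubated with [3H]-PGD2 for 60 min at room temperature, then filtered.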

CYP2D6 = CYP2D6 (Homo sapiens (Human), UniProt P10635); assay: CYP inhibition test, dextromethorphan O-demethylation; assay type: in vitro ADME; settings: pooled human hepatic microsome, 5 μmol/L dextromethorphan
Sequence of CYP2D6 (P10635 whole entry): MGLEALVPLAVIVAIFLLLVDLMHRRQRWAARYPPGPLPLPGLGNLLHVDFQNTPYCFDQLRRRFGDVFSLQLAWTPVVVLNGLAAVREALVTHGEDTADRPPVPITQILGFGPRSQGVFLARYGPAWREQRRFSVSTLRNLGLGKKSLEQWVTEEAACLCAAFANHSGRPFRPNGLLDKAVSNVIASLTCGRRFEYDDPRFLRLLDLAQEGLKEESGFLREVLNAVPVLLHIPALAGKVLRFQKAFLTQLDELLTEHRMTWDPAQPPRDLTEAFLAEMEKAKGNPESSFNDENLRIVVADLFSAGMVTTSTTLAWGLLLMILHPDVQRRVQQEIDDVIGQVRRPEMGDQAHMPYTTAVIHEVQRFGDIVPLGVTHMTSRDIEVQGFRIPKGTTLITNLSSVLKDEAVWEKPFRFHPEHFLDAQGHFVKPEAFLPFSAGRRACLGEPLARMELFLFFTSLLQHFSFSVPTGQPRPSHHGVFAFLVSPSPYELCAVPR
From the text: as §1, §2, §3

CRTH2 [2] = molecular target: T1, CRTH2; assay: CRTH2 inhibitory activity in CRTH2-expressing cells (PGD2-induced intracellular calcium increase, K562); assay type: cell-based; settings: 200 nM PGD2, read-out: IC50, inhibition of intracellular calcium concentration increase induced by PGD2
Experimental: CRTH2 inhibitory activities of compounds were determined as inhibition activity of intra-cellular calcium concentration increase induced by PGD2 in CRTH2-expressing cells.
CRTH2-expressing K562 cells were suspended at concentration of 2×10^6 cells/ml in buffer (10 mM HEPES, pH 7.4, 0.1% Bovine serum albumin). Cells were incubated with […] (4 μM) for 30 min at room temperature. Cells were washed, resuspended and mixed with various concentration of compounds of the present invention. After 2 min, cells were treated with 200 nM of PGD2. Then intracellular calcium concentration was measured using intracellular ion analyzer (FDSS3000). Inhibition ratio was defined by comparing intracellular calcium concentration increase with and without compound, and IC50 for each compound was calculated from inhibitory curve.

[3] = BA test (oral absorbability); assay type: in vivo; settings: rat, plasma; Rats, Oral administration 1 mg/kg
Experimental: An experimental material and a method for examining oral absorbability • (1) Animals used: rats or mice were used. • (2) Breeding condition: chow and sterilized tap water were allowed to be taken in freely. • (3) Setting of a dosage and grouping: a predetermined dosage was administered orally or intravenously. Groups were formed as shown below. (A dosage varied depending on each compound) Oral administration 1-30 mg/kg (n=2 to 3) Intravenous administration 0.5-10 mg/kg (n=2 to 3) • (4) Preparation of administered liquid: In oral administration, a solution or suspension was administered. […] In intravenous administration, administration from the caudal vein was conducted using a syringe with an injection needle. • (6) Evaluation item: Blood was chronologically collected, and then the concentration of a compound of the present invention blood plasma was measured using a LC/MS/MS. • (7) Statistical analysis: With regard to a shift in plasma concentration, the plasma concentration-time area under the curve (AUC) was calculated using a nonlinear least-squares program WinNonlin®. Bioavailability (BA) was calculated from the AUCs of the oral administration group and the intravenous administration group, respectively. […]

DP receptor = DP receptor (Homo sapiens (Human), UniProt Q13258); assay: DP inhibitory activity in human platelets (PGD2-induced cAMP increase in platelet rich plasma, HTRF); assay type: cell-based; settings: IC50 of PGD2 (300 nM)-induced cAMP increase, read-out: PRP
Sequence of DP receptor (Q13258 whole entry): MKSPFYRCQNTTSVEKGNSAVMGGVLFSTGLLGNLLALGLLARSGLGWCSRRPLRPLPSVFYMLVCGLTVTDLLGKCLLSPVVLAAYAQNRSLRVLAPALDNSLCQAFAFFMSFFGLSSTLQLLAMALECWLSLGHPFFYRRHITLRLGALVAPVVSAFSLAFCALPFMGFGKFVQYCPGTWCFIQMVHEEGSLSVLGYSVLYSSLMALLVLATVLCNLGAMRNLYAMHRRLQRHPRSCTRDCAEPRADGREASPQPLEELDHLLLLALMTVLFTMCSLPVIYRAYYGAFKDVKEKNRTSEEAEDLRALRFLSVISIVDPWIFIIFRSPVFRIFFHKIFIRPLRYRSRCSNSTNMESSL
Experimental: Thirty milliliter of blood was drown from healthy human into a syringe preloaded with 1/9 volume of 3.8% citrate sodium. The blood was centrifuged with 180 g for 10 min at room temperature and the upper plasma layer was collected as platelet rich plasma (PRP). The PRP was transferred to plate and treated with 3-isobutyl-1-methylxanthin (IBMX; […]) for 5 min. Then the compounds of the present invention were added to the plate and after 10 min, 300 nM of PGD2 was added. The reaction was stopped with 1 mmol/l hydrogenchlolide after 2 min of PGD2 addition, and platelet was lysed by adding 12% Triton X-100. The concentration of cAMP in the supernatant of the platelet lysate was quantified using homogenous time resolved fluorescence (HTRF). Inhibition ratio was defined by cAMP increase with and without compound, and […] for each compound was calculated from inhibitory curve.

CRTH2 [4] = molecular target: T1, CRTH2; assay: CRTH2 inhibitory activity in human eosinophil (PGD2 induced eosinophil shape change); assay type: cell-based; settings: human peripheral blood, 40 nM PGD2, forward scatter; read-out: IC50, inhibition of PGD2 induced eosinophil shape change
Experimental: CRTH2 inhibitory activity in human eosinophil was determined as inhibitory activity of PGD2 induced eosinophil shape change.
Human peripheral blood was mixed with compounds of the present invention at 37° C. After 5 min, the blood was treated with 40 nM of PGD2 for 10 min and fixed. The blood was hemolyzed and centrifuged. Blood cells were resuspended in PBS and measured forward scatter (FS) using flow cytometer (FACSAria). Inhibition ratio was defined by comparing FS with and without compound, and IC50 for each compound was calculated from inhibitory curve.

[5] = CRTH2 receptor binding, categorized AAAA/AAA

Sequence of CYP3A4 (P08684 whole entry): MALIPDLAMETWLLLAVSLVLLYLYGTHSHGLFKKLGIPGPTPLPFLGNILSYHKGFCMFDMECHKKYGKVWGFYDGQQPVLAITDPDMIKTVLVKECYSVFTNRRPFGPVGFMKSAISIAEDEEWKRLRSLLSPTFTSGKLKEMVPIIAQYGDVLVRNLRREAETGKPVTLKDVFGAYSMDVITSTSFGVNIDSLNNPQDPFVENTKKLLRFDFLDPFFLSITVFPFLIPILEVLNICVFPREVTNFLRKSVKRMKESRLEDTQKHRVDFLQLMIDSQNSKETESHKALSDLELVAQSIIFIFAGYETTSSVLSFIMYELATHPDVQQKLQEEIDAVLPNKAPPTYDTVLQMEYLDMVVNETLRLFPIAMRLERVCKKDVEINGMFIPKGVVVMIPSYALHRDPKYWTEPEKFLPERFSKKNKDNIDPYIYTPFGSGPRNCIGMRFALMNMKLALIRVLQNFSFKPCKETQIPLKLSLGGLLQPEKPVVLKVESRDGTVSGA

Compound	IC50 (CYP3A4)	IC50 (CYP2C9)	Ki (CRTH2 [1]; [5])	Ki (CRTH2 [1])	IC50 (CYP2D6)	IC50 (CRTH2 [2])	bioavailability [3]	IC50 (DP receptor)	IC50 (CRTH2 [4])
CC(C)Oc1ccc(S(=O)(=O)N2C[C@@H](C)[C@@H](n3nc(CC(=O)O)c4ccc(F)cc43)C2)c(F)c1 [Compound I-52]	> 20000 nM	> 20000 nM	< 100 nM	5.1 nM	> 20000 nM	140 nM	–	–	–
CCOc1ccc(S(=O)(=O)N2C[C@@H](C)[C@@H](n3nc(CC(=O)O)c4ccccc43)C2)cn1 [Compound I-96]	> 20000 nM	> 20000 nM	< 100 nM	37 nM	> 20000 nM	230 nM	82%	68 nM	270 nM
CC(C)Oc1ccc(S(=O)(=O)N2C[C@@H](C)[C@@H](n3nc(CC(=O)O)c4ccc(F)cc43)C2)cc1 [Compound I-37]	> 20000 nM	> 20000 nM	–	2.4 nM	> 20000 nM	50 nM	71%	71 nM	15 nM
CC(C)Oc1ccc(S(=O)(=O)N2C[C@@H](C)[C@@H](n3nc(CC(=O)O)c4ccc(F)cc43)C2)cn1 [Compound I-57]	> 20000 nM	> 20000 nM	< 100 nM	3.8 nM	> 20000 nM	210 nM	–	–	–
CC(C)Oc1ccc(S(=O)(=O)N2C[C@H](n3nc(CC(=O)O)c4ccc(F)cc43)C[C@H]2C#N)cc1 [Compound I-7]	> 20000 nM	> 20000 nM	< 100 nM	–	> 20000 nM	33 nM	–	26 nM	34 nM
